{"source": "paper PMC8326117", "about": "(International Journal of Biological Sciences, 2021)", "key": {"[1]": {"test_system": "HEK293T/hACE2 cells"}, "[2]": {"molecular_target": "ACE2 (Homo sapiens, UniProt Q9BYF1)", "sequence (Q9BYF1 18-805)": "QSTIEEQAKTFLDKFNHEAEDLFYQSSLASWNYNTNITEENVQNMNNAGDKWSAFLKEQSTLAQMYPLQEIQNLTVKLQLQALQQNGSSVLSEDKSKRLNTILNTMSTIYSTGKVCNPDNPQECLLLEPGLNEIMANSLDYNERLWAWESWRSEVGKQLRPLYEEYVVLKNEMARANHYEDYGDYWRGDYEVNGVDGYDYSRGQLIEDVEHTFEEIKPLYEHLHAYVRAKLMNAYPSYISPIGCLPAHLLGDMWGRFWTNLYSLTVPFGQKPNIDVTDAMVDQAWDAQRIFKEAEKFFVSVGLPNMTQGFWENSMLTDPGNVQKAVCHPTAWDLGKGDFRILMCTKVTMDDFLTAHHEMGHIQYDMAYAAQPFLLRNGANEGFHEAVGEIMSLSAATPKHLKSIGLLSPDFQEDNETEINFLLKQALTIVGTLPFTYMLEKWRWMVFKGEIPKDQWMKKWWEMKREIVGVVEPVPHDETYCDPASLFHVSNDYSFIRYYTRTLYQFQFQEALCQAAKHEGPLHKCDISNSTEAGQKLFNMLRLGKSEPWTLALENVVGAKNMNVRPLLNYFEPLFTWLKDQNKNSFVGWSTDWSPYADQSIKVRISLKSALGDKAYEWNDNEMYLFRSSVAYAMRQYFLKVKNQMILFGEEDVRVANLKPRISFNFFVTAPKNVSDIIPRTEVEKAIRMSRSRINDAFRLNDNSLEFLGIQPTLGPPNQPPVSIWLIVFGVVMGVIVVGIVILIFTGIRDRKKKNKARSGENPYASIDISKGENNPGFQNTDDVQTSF", "assay": "LSPR assay, binding to ACE2"}, "[3]": {"settings": "mouse, in vivo"}}, "note": "pKd: −log10 of the molar value.", "data": [{"smiles": "CC(C)C[C@H](NC(=O)[C@@H]1CCCN1C(=O)[C@H](Cc1ccccc1)NC(=O)[C@H](Cc1ccc(O)cc1)NC(=O)[C@H](CS)NC(=O)[C@H](CC(N)=O)NC(=O)[C@H](Cc1ccccc1)NC(=O)CNC(=O)[C@H](CCC(=O)O)NC(=O)[C@@H](NC(=O)[C@H](CCCCN)NC(=O)[C@H](CCCCN)NC(=O)[C@H](CCCCN)NC(=O)[C@H](CCCCN)NC(=O)[C@H](CCCCN)NC(=O)[C@@H](N)CCCCN)C(C)C)C(=O)N[C@@H](CCC(N)=O)C(=O)N[C@@H](CO)C(=O)O", "note": "[AYp28]", "values": [{"measurement": "cytotoxicity", "setting": "[1]", "value": "no significant cytotoxicity"}, {"measurement": "pKd", "setting": "[2]", "value": 7.32}, {"measurement": "koff", "setting": "[2]; pH 7.4", "value": 0.000205, "unit": "s⁻¹"}, {"measurement": "kon", "setting": "[2]; pH 7.4", "value": 4310, "unit": "M⁻¹ s⁻¹"}, {"measurement": "distribution in livers and kidneys", "setting": "[3]", "value": "not in the kidneys and livers"}, {"measurement": "distribution in lungs and small intestine", "setting": "[3]", "value": "preferentially distributed in the lungs and intestine"}]}]}
